The values that follow come from US10881636B2, “Dihydroartemisinin-steroid conjugate and preparation method and application thereof” (YUNBAIYAO ZHENGWU SCIENCE AND TECHNOLOGY (SHANGHAI) CO., …, priority 2017, dated 2021).

The IC50 is the concentration needed to halve the response being measured. For orientation: CC50 means the concentration that lowers cell viability or growth by half.

The subject of data set [1] is Jurkat cells (TIB-152). Description: Tumor cell growth inhibition, CCK-8 assay. Format: cell-based. The conditions noted are these: Homo sapiens, 48 h, CCK-8, growth inhibition. The protocol:
(§1) African green monkey kidney cells-Vero cells (CCL-81) were used as normal cells to evaluate the cytotoxic effects of the compounds. Under the intervention of such compounds, the living cells can be stained using a cell proliferation-cytotoxicity assay kit Cell Counting Kit-8 (CCK-8 solution), and the OD value was measured to reflect the survival and growth state of the cells, that is, the cell survival rate (%) and the cell growth inhibition rate (%).
(§2) The culture solution containing 10% FBS was regarded as a complete medium. […] After all the cells were cultured to logarithmic growth phase, the tests were performed as follows.
(§3) The adherent cells were digested by pancreatin and suspended to directly collect cells. The cell suspension was centrifuged, and after counted, the cells were seeded in a transparent 96-well culture plate and adjusted to 5×10^3 cells/100 μL/well with respective complete mediums. At the same time, each plate was provided with blank wells without cells and samples and control wells with cells but without samples. The 96-well culture plates were then cultured overnight in a 37° C., 5% CO2 incubator. The test compounds were added at 50 μL/well on the next day, and respective complete mediums were added at the same amount. […] While for the control wells and blank wells, complete mediums rather than the compound samples were added, where the complete culture medium was also added at 100 μL/well. […] 2 h before the end of the incubation, the culture medium was removed, and complete culture medium containing 10% CCK-8 solution was added at 100 μL/well.
(§4) The CC50 was calculated according to the survival rate (%) of Vero cells to reflect the cytotoxic effect of the compounds. The IC50 was calculated according to the growth inhibition (%) of the tumor cells to reflect the antitumor activity of the samples.
A general note: Tetrazolium assays rely on reduction of a dye to a coloured formazan, in cell work by metabolically active cells.

Data set [2] has as its system HeLa cells (CCL-2). Description: Tumor cell growth inhibition, CCK-8 assay. The conditions noted are these: Homo sapiens, 48 h, CCK-8, growth inhibition. Type of data set: cell-based. As to the method: as §1, §2, §3, §4
The subject of data set [3] is 786-O cells (CRL-1932). Description: Tumor cell growth inhibition, CCK-8 assay. Format: cell-based. The conditions noted are these: Homo sapiens, 786-0; 48 h, CCK-8, growth inhibition. The protocol:
as §1, §2, §3, §4

Data set [4] relates to PC-3 cells (CRL-1435). Description: Tumor cell growth inhibition, CCK-8 assay. Type of data set: cell-based. The note with it: Homo sapiens, 48 h, CCK-8, growth inhibition, read-out: PC3 IC50. As to the method:
as §1, §2, §3, §4

The test system of data set [5] is MCF7 cells (HTB-22). The experiment in a line: Tumor cell growth inhibition, CCK-8 assay. Type of data set: cell-based. The note with it: Homo sapiens, 48 h, CCK-8, growth inhibition. The protocol: as §1, §2, §3, §4
For data set [6], the system named is A549. Description: Tumor cell growth inhibition. Type of data set: cell-based. The conditions noted are these: Homo sapiens. The protocol: as §3, §4
A short description of data set [7]: Cytotoxicity on normal cells, CCK-8 assay. Type of data set: cell-based. The note with it: African green monkey. As to the method: as §1, §2, §3, §4
Data set [8] relates to Kasumi. Description: Inhibitory effects on various tumor cells. Format: cell-based. The protocol: as §3, §4
The subject of data set [9] is NB4. Description: Inhibitory effects on various tumor cells. Type of data set: cell-based. The note with it: Homo sapiens, NB-4. As to the method: as §3, §4
Data set [10] deals with OV-90. Description: Inhibitory effects on various tumor cells. Format: cell-based. The note with it: Homo sapiens; OV-90 cells. As to the method: as §3, §4
The test system of data set [11] is SW1990. Description: Inhibitory effects on various tumor cells. The conditions noted are these: Homo sapiens. Format: cell-based. The protocol: as §3, §4
Data set [12] deals with DU-145. The experiment in a line: Inhibitory effects on various tumor cells. Type of data set: cell-based. The conditions noted are these: Homo sapiens; DU-145 cells. As to the method:
as §3, §4

The test system of data set [13] is RCC4 vhl. Description: Inhibitory effects on various tumor cells. Type of data set: cell-based. The conditions noted are these: Homo sapiens. The protocol:
as §3, §4

Data set [14] concerns RCC-4. The experiment in a line: Inhibitory effects on various tumor cells. Format: cell-based. The conditions noted are these: Homo sapiens, RCC4; RCC-4 cells. The protocol:
as §3, §4

The test system of data set [15] is HEPG-2. The experiment in a line: Inhibitory effects on various tumor cells. Format: cell-based. The conditions noted are these: Homo sapiens, HepG2; HEPG-2 cells. As to the method:
as §3, §4

Data set [16] concerns K562. Description: Inhibitory effects on various tumor cells. Type of data set: cell-based. The note with it: Homo sapiens. As to the method:
as §3, §4

Data set [17] concerns HC7116. The experiment in a line: Inhibitory effects on various tumor cells. Type of data set: cell-based. The protocol: as §3, §4
Data set [18] concerns U2OS. The experiment in a line: Inhibitory effects on various tumor cells. Type of data set: cell-based. The note with it: Homo sapiens. As to the method: as §3, §4
Data set [19] relates to U87. Description: Inhibitory effects on various tumor cells. Format: cell-based. The note with it: Homo sapiens, U-87 MG. The protocol: as §3, §4
For data set [20], the system named is human non-small cell lung cancer cells A549. The experiment in a line: Xenograft model of human lung cancer cell A549. The conditions noted are these: nude mice, 10 mg/kg intraperitoneal, 28 days; for deaths during treatment: JZ-02 group 9 mice, paclitaxel group 5 mice; for tumor inhibition rate: from tumor tissue weight. A general note: A xenograft is tissue or cells of one species grown in another, often human tumour cells in immunodeficient mice.
Description: 23 BALB/c nude mice, weighing 18-22 g and aged 2-4 weeks, were used in the experiment.

Setting [21] is: Vero normal cells, 48 h, CCK-8, cell survival rate, read-out: Vero CC50.

Like-named read-outs stand apart in the source and are kept apart here.

For `C[C@H]1[C@@H](O)O[C@@H]2O[C@@]3(C)CC[C@H]4[C@H](C)CC[C@@H]1[C@@]24OO3` [Dihydroartemisinin], the IC50 in [1] stood at 100 µM; in data set [2], 1.66 µM; in data set [3] it was 1.1 µM; in data set [4], 2.02 µM; in data set [5], 100 µM; in [6], 2.96 µM. In addition, the 50% cytotoxic concentration (CC50) at 48 h in data set [7] is 5.88 µM.

In the case of `C[C@H]1C(O[C@@H]2CC[C@@]3(C)C(C2)C[C@H](O)C2C3CC[C@@]3(C)C2CC[C@@H]3[C@H](C)CCC(=O)O)OC2OC3(C)CCC4[C@H](C)CCC1[C@@]24OO3` (stereo partly drawn) [JZ-2], the 50% inhibitory concentration (IC50) in data set [1] is 0.24 µM; in data set [2] it was 0.04 µM; in [3], 0.06 µM; in data set [4] it was 0.26 µM; in [5] it was 3.39 µM; in data set [6], 0.02 µM. Also, the IC50 was 0.157 µM in data set [8]; 0.157 µM in [9]; 0.157 µM in [10]; 0.517 µM in data set [11]; 0.625 µM in data set [12]; 30 µM in data set [13]. Moreover, the IC50 in data set [14] turned out to be 2.5 µM; in data set [15], 0.5 µM; in [16], 0.157 µM; in data set [17], 0.157 µM; in data set [18] it was 0.357 µM; in data set [19], 0.517 µM. Moreover, the CC50 at 48 h in data set [7] (setting [21]) was determined as 7.81 µM. For the same compound, the “tumor growth (tumor growth curve, FIG. 1)” value in [20] is listed as “significantly inhibit the tumor growth”. Besides, the deaths during treatment result in data set [20] is reported as “no death”. In [20], this compound displayed a tumor inhibition rate of 58%.

On to `C[C@H]1C(O[C@@H]2CC[C@@]3(C)C(C2)C[C@@H](O)C2C3CC[C@@]3(C)C2CC[C@@H]3[C@H](C)CCC(=O)O)OC2O[C@@]3(C)CCC4[C@H](C)CCC1[C@@]24OO3` (stereo partly drawn) [JZ-4], for which the IC50 in data set [1] was found to be 32 µM; in [2] it was 25 µM; in [3], 100 µM; in [4], 25 µM; in data set [5], 35 µM; in data set [6] it was 2.4 µM. Moreover, the half-maximal cytotoxic concentration (CC50) at 48 h in data set [7] (setting [21]) was determined as 100 µM.

In the case of `CC(C)[C@@H](C)/C=C/[C@@H](C)[C@H]1CCC2C3=CC=C4CC(OC5OC6OC7(C)CCC8[C@H](C)CCC([C@H]5C)[C@@]68OO7)CC[C@]4(C)C3CC[C@@]21C` (stereo partly drawn) [JZ-6], the IC50 was 34 µM in data set [1]; 100 µM in [2]; 100 µM in data set [3]; 100 µM in data set [4]; 45 µM in data set [5]; 6.33 µM in data set [6]. The CC50 at 48 h in [7] came out at 100 µM.

In the case of `CC(=O)O[C@H]1C(=O)[C@@]2(C)[C@H]([C@H](OC(=O)c3ccccc3)[C@]3(O)C[C@H](OC(=O)[C@H](O)[C@@H](NC(=O)c4ccccc4)c4ccccc4)C(C)=C1C3(C)C)[C@]1(OC(C)=O)CO[C@@H]1C[C@@H]2O` [Taxol, paclitaxel, reference compound], the IC50 in data set [1] stood at 0.03 µM; in [2], 0.006 µM; in [3] it was 0.006 µM; in data set [4] it was 0.006 µM; in [5], 0.01 µM; in [6], 0.006 µM. The IC50 in data set [8] amounted to 0.01 µM; in data set [9], 0.01 µM; in [10], 0.01 µM; in data set [11], 0.01 µM; in data set [12] it was 0.01 µM; in [13], 30 µM. Also, the half-maximal inhibitory concentration (IC50) in data set [14] was determined as 10 µM; in [15], 0.01 µM; in data set [16], 0.01 µM; in [17], 0.01 µM; in [18], 0.01 µM. The same compound returned a CC50 at 48 h in [7] of 1.5 µM. Also, in data set [20], the deaths during treatment entry is recorded as “one death”. In data set [20], this compound showed a tumor inhibition rate of 52%.
